# Source: US8703779B2, “Preparation of crystalline forms of dihydropyrazolopyrimidinone” (Merck Sharp & Dohme Corp., priority 2009, dated 2014)
# Tests used:
# Weel kinase = Weel kinase (Homo sapiens, UniProt P30291); settings: cited from earlier work
# [1] = relative thermodynamic stability of crystalline forms; format: physicochemical
# Protocol: The novel crystalline forms of Compound A or a salt thereof, especially the hemihydrates described herein, can be provided stably and constantly from the standpoint of the manufacturing process, and are useful in the treatment of cancer. […] The relative stability of the hemihydrates and monohydrate Form G at relative humidity higher than 93% has been difficult to establish, because the solubility of the three crystalline forms are very close (difference <1 mg/mL) and the conversion is very slow.
# Chain of Weel kinase (P30291 whole entry): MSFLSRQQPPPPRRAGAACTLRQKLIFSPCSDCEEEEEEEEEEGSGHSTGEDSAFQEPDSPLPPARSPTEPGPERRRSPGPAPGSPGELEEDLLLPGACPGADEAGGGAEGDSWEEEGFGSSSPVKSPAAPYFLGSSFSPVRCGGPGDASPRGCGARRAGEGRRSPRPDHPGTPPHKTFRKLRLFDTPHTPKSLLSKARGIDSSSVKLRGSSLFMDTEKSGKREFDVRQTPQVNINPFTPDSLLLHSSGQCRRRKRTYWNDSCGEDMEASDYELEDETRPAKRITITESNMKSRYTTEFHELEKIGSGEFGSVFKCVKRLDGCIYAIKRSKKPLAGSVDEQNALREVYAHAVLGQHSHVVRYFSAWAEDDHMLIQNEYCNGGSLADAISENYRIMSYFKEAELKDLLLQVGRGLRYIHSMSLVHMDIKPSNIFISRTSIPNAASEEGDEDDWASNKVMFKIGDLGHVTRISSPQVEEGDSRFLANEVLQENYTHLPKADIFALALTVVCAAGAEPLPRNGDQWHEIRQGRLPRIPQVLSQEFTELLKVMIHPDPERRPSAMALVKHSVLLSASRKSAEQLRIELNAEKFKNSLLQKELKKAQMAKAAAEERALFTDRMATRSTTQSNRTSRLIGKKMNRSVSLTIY
smiles,measurement,setting,value
"C=CCn1c(=O)c2cnc(Nc3ccc(N4CCN(C)CC4)cc3)nc2n1-c1cccc(C(C)(C)O)n1 [Compound A, 2-allyl-1-[6-(1-hydroxy-1-methylethyl)pyridin-2-yl]-6-{[4-(4-methylpiperazin-1-yl)phenyl]amino}-1,2-dihydro-3H-pyrazolo[3,4-d]pyrimidin-3-one]",Weel kinase inhibitory effect,Weel kinase,excellent Weel kinase inhibitory effect
"C=CCn1c(=O)c2cnc(Nc3ccc(N4CCN(C)CC4)cc3)nc2n1-c1cccc(C(C)(C)O)n1 [crystalline hemihydrate form I, 2-allyl-1-[6-(1-hydroxy-1-methylethyl)pyridin-2-yl]-6-{[4-(4-methylpiperazin-1-yl)phenyl]amino}-1,2-dihydro-3H-pyrazolo[3,4-d]pyrimidin-3-one]",thermodynamic stability relative to other known forms,[1]; temperatures up to 44° C. and relative humidity range of 14-93%,more stable thermodynamically than other known forms
"C=CCn1c(=O)c2cnc(Nc3ccc(N4CCN(C)CC4)cc3)nc2n1-c1cccc(C(C)(C)O)n1 [crystalline hemihydrate form II, 2-allyl-1-[6-(1-hydroxy-1-methylethyl)pyridin-2-yl]-6-{[4-(4-methylpiperazin-1-yl)phenyl]amino}-1,2-dihydro-3H-pyrazolo[3,4-d]pyrimidin-3-one]",thermodynamic stability relative to other known forms,[1]; temperatures equal or higher than 48° C. and relative humidity range of 19-93%,more stable thermodynamically than other known forms
